In patent US6737383B1, “Herbicidal oxadiazolidines” (priority 1999, dated 2004):

How the values were obtained:
Green foxtail [1] = test: Test D green foxtail; type: in vivo; settings: Rate 125 g/ha, Preemergence; 0 to 100 scale, 0 no injury, 100 complete control
Method in brief: (§1)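 Seeds were sown in greenhouse pots, one species per pot or compartment. Compounds were in a non-phytotoxic solvent mixture with surfactant; preemergence applications went on the sandy loam surface within one day of planting. Injury was rated visually after 14 to 21 days, 0 (none) to 100 (complete control).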

rice = test: Test B flood test rice; type: in vivo, Oryza sativa
Method in brief: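 Flood test on plants grown to the 2-leaf stage; treated plants kept in greenhouse twelve to sixteen days, then visually rated against controls on a 0 (no effect) to 10 (complete control) scale.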

green foxtail [2] = test: Test E green foxtail; type: in vivo, Setaria viridis; settings: Preemergence
goosegrass = test: Test D goosegrass; type: in vivo, Eleusine indica; settings: Rate 125 g/ha, Preemergence; 0 to 100 scale, 0 no injury, 100 complete control
Method in brief: as §1

winter barley = test: Test E winter barley; type: in vivo, Hordeum vulgare; settings: Preemergence
crabgrass = test: Test B pre/postemergence crabgrass; type: in vivo, Digitaria sanguinalis
Method in brief: (§2)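 Herbicidal effect was estimated by eye on a ten-point control scale after plants spent twelve to sixteen days in a greenhouse following soil or foliar treatment. Foliar sprays targeted plants at one to four leaves; all doses were formulated in a non-phytotoxic solvent with surfactant.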

Italian ryegrass = test: Test E Italian ryegrass; type: in vivo, Lolium multiflorum; settings: Preemergence
wild oat [3] = test: Test B pre/postemergence wild oat; type: in vivo, Avena fatua; settings: for Plant response rating, Wild oats: Rate 250 g/ha
Method in brief: as §2

winter wheat [4] = test: Test E winter wheat; type: in vivo, Triticum aestivum; settings: Preemergence
wild oat [5] = test: Test E wild oat; type: in vivo, Avena fatua; settings: Preemergence
blackgrass = test: Test E blackgrass; type: in vivo, Alopecurus myosuroides; settings: Preemergence
wheat = test: Test B pre/postemergence wheat; type: in vivo, Triticum aestivum; settings: for Plant response rating, Wheat: Rate 250 g/ha
Method in brief: as §2

winter wheat [6] = test: Test E winter wheat; type: in vivo, Triticum aestivum; settings: Postemergence
Method in brief: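 Postemergence: 60:40 sandy loam/greenhouse potting mix, 1- to 4-leaf stage. Formulation: solvent plus surfactant. Assessment: visual comparison with untreated controls at ~21–28 days.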

common groundsel = test: Test D common groundsel; type: in vivo, Senecio vulgaris; settings: Rate 125 g/ha, Preemergence; 0 to 100 scale, 0 no injury, 100 complete control
Method in brief: as §1

Alexandergrass = test: Test D Alexandergrass; type: in vivo, Brachiaria plantaginea; settings: Rate 125 g/ha, Preemergence; 0 to 100 scale, 0 no injury, 100 complete control
Method in brief: as §1

[7] = Rate 62 g/ha, 0 to 100 scale, 0 no effect, 100 complete control
[8] = Rate 125 g/ha, 0 to 100 scale (0 no effect, 100 complete control)
[9] = Rate 500 g/ha, 0 to 100 scale where 0 is no effect and 100 is complete control
[10] = Postemergence, Rate 125 g/ha, scale of 0 to 10 where 0 is no effect and 10 is complete control
[11] = Preemergence, Rate 62 g/ha, scale 0 to 10 (0 no effect, 10 complete control)
[12] = Preemergence, Rate 500 g/ha, scale 0 to 10 (0 no effect, 10 complete control)
[13] = Rate 62 g/ha, Postemergence, scale of 0 to 10 where 0 is no effect and 10 is complete control
[14] = Rate 500 g/ha, Postemergence, scale 0 to 10, 0 no effect, 10 complete control
[15] = Preemergence, Rate 125 g/ha, 0 is no effect, 10 is complete control
[16] = Preemergence, scale of 0 to 10 where 0 is no effect and 10 is complete control
[17] = Postemergence, scale 0 to 10, 0 is no effect, 10 is complete control

With `CC(C)N(C(=O)n1oc(=O)n(C(C)C)c1=O)c1ccc(Cl)cc1` [Compound 114] the “Green foxtail plant response rating” value (Green foxtail [1]) was 100, the “Plant response rating, Green foxtail” value (Green foxtail [1]) was 100 and the “Rice plant response rating” value (rice; Postemergence (flood test species), Rate 125 g/ha, scale of 0 to 10 where 0 is no effect and 10 is complete control) was 0. The “Rice plant response rating” value (rice; Rate 62 g/ha, Postemergence section, flood test species, scale of 0 to 10 where 0 is no effect and 10 is complete control) was 0, the “Plant response rating, Rice” value (rice; Rate 250 g/ha, Postemergence (flood test), scale 0 to 10, 0 is no effect, 10 is complete control) was 0 and the “Rice plant response rating” value (rice; Rate 500 g/ha, listed under Postemergence (flood test species), scale 0 to 10, 0 no effect, 10 complete control) was 0. For the same compound, the “Plant response rating, Green foxtail” value (green foxtail [2]; [7]) was 45, the “Plant response rating, Green foxtail” value (green foxtail [2]; [8]) was 100 and the “Plant response rating, Green foxtail” value (green foxtail [2]; Rate 250 g/ha, 0 to 100 scale) was 100. The “Plant response rating, Green foxtail” value (green foxtail [2]; [9]) was 85, the “Plant response rating, Goosegrass” value (goosegrass) was 100 and the “Plant response rating, Barley (winter)” value (winter barley; [7]) was 0. For the same compound, the “Plant response rating, Barley (winter)” value (winter barley; [8]) was 5, the “Plant response rating, Barley (winter)” value (winter barley; Rate 250 g/ha, 0 to 100 scale) was 10 and the “Plant response rating, Barley (winter)” value (winter barley; [9]) was 40. For the same compound, the “Crabgrass plant response rating” value (crabgrass; [10]) was 8, the “Crabgrass plant response rating” value (crabgrass; Postemergence, Rate 250 g/ha, scale 0 to 10, 0 no effect, 10 complete control) was 9 and the “Crabgrass plant response rating” value (crabgrass; [11]) was 2. For the same compound, the “Plant response rating, Crabgrass” value (crabgrass; Preemergence, Rate 125 g/ha, scale 0 to 10 (0 no effect, 10 complete control)) was 7, the “Plant response rating, Crabgrass” value (crabgrass; Preemergence, Rate 250 g/ha, scale of 0 to 10 where 0 is no effect and 10 is complete control) was 9 and the “Crabgrass plant response rating” value (crabgrass; [12]) was 9. The “Crabgrass plant response rating” value (crabgrass; [13]) was 2, the “Crabgrass plant response rating” value (crabgrass; [14]) was 9 and the “Plant response rating, I. Ryegrass” value (Italian ryegrass; [7]) was 20. The “Plant response rating, I. Ryegrass” value (Italian ryegrass; [8]) was 30, the “Plant response rating, I. Ryegrass” value (Italian ryegrass; Rate 250 g/ha, 0 to 100 scale) was 100 and the “Plant response rating, I. Ryegrass” value (Italian ryegrass; [9]) was 95. For the same compound, the “Wild oats plant response rating” value (wild oat [3]; [10]) was 0, the “Wild oats plant response rating” value (wild oat [3]; [11]) was 5 and the “Wild oats plant response rating (0 to 10 scale)” value (wild oat [3]; [15]) was 7. The “Plant response rating, Wild oats” value (wild oat [3]; [16]) was 9, the “Wild oats plant response rating” value (wild oat [3]; [12]) was 10 and the “Wild oats plant response rating” value (wild oat [3]; [13]) was 0. The “Plant response rating, Wild oats” value (wild oat [3]; [17]) was 2, the “Wild oats plant response rating” value (wild oat [3]; [14]) was 2 and the “Plant response rating, Wheat (winter)” value (winter wheat [4]; [7]) was 0. The “Plant response rating, Wheat (winter)” value (winter wheat [4]; [8]) was 10, the “Plant response rating, Wheat (winter)” value (winter wheat [4]; Rate 250 g/ha, 0 to 100 scale) was 0 and the “Plant response rating, Wheat (winter)” value (winter wheat [4]; [9]) was 0. For the same compound, the “Plant response rating, Wild oat” value (wild oat [5]; [7]) was 20, the “Plant response rating, Wild oat” value (wild oat [5]; [8]) was 40 and the “Plant response rating, Wild oat” value (wild oat [5]; [9]) was 70. For the same compound, the “Plant response rating, Blackgrass” value (blackgrass; [7]) was 30, the “Plant response rating, Blackgrass” value (blackgrass; [8]) was 50 and the “Plant response rating, Blackgrass” value (blackgrass; Rate 250 g/ha, 0 to 100 scale) was 50. For the same compound, the “Plant response rating, Blackgrass” value (blackgrass; [9]) was 100, the “Wheat plant response rating” value (wheat; [10]) was 0 and the “Wheat plant response rating” value (wheat; [11]) was 0. For the same compound, the “Wheat plant response rating (0 to 10 scale)” value (wheat; [15]) was 0, the “Plant response rating, Wheat” value (wheat; [16]) was 2 and the “Wheat plant response rating” value (wheat; [12]) was 8. For the same compound, the “Wheat plant response rating” value (wheat; [13]) was 0, the “Plant response rating, Wheat” value (wheat; [17]) was 0 and the “Wheat plant response rating” value (wheat; [14]) was 0. The “Plant response rating, Wheat (winter)” value (winter wheat [6]; Rate 62 g/ha, 0 to 100 scale) was 0, the “Plant response rating, Wheat (winter)” value (winter wheat [6]; Rate 125 g/ha, 0 to 100 scale) was 10 and the “Plant response rating, Wheat (winter)” value (winter wheat [6]; Rate 250 g/ha, 0 to 100 scale (0 no effect, 100 complete control)) was 60. The “Plant response rating, Wheat (winter)” value (winter wheat [6]; Rate 500 g/ha, 0 to 100 scale, 0 no effect, 100 complete control) was 20, the “Plant response rating, Com. groundsel” value (common groundsel) was 85 and the “Plant response rating, Alexandergrass” value (Alexandergrass) was 98.
